Measurements published in BigSolDB 2.1.

## CC(=O)Nc1cccc(N)c1
In DMF, 278.15 K
  solubility (mole fraction): 0.029
In DMF, 283.15 K
  solubility (mole fraction): 0.043
In DMF, 288.15 K
  solubility (mole fraction): 0.061
In DMF, 293.15 K
  solubility (mole fraction): 0.088
In DMF, 298.15 K
  solubility (mole fraction): 0.124
In DMF, 303.15 K
  solubility (mole fraction): 0.166
In DMF, 308.15 K
  solubility (mole fraction): 0.22
In DMF, 313.15 K
  solubility (mole fraction): 0.285
In DMF, 318.15 K
  solubility (mole fraction): 0.358
In DMF, 323.15 K
  solubility (mole fraction): 0.44
In THF, 278.15 K
  solubility (mole fraction): 0.108
In THF, 283.15 K
  solubility (mole fraction): 0.146
In THF, 288.15 K
  solubility (mole fraction): 0.194
In THF, 293.15 K
  solubility (mole fraction): 0.256
In THF, 298.15 K
  solubility (mole fraction): 0.328
In THF, 303.15 K
  solubility (mole fraction): 0.404
In THF, 308.15 K
  solubility (mole fraction): 0.487
In THF, 313.15 K
  solubility (mole fraction): 0.568
In THF, 318.15 K
  solubility (mole fraction): 0.653
In THF, 323.15 K
  solubility (mole fraction): 0.729
In acetone, 278.15 K
  solubility (mole fraction): 0.05
In acetone, 283.15 K
  solubility (mole fraction): 0.063
In acetone, 288.15 K
  solubility (mole fraction): 0.081
In acetone, 293.15 K
  solubility (mole fraction): 0.101
In acetone, 298.15 K
  solubility (mole fraction): 0.125
In acetone, 303.15 K
  solubility (mole fraction): 0.153
In acetone, 308.15 K
  solubility (mole fraction): 0.186
In acetone, 313.15 K
  solubility (mole fraction): 0.225
In acetone, 318.15 K
  solubility (mole fraction): 0.27
In acetone, 323.15 K
  solubility (mole fraction): 0.319
In acetonitrile, 278.15 K
  solubility (mole fraction): 0.0283
In acetonitrile, 283.15 K
  solubility (mole fraction): 0.0322
In acetonitrile, 288.15 K
  solubility (mole fraction): 0.0382
In acetonitrile, 293.15 K
  solubility (mole fraction): 0.0453
In acetonitrile, 298.15 K
  solubility (mole fraction): 0.0535
In acetonitrile, 303.15 K
  solubility (mole fraction): 0.0644
In acetonitrile, 308.15 K
  solubility (mole fraction): 0.0752
In acetonitrile, 313.15 K
  solubility (mole fraction): 0.0908
In acetonitrile, 318.15 K
  solubility (mole fraction): 0.108
In acetonitrile, 323.15 K
  solubility (mole fraction): 0.128
In ethyl acetate, 278.15 K
  solubility (mole fraction): 0.033
In ethyl acetate, 283.15 K
  solubility (mole fraction): 0.038
In ethyl acetate, 288.15 K
  solubility (mole fraction): 0.043
In ethyl acetate, 293.15 K
  solubility (mole fraction): 0.049
In ethyl acetate, 298.15 K
  solubility (mole fraction): 0.055
In ethyl acetate, 303.15 K
  solubility (mole fraction): 0.063
In ethyl acetate, 308.15 K
  solubility (mole fraction): 0.074
In ethyl acetate, 313.15 K
  solubility (mole fraction): 0.085
In ethyl acetate, 318.15 K
  solubility (mole fraction): 0.099
In ethyl acetate, 323.15 K
  solubility (mole fraction): 0.114
In isopropanol, 278.15 K
  solubility (mole fraction): 0.021
In isopropanol, 283.15 K
  solubility (mole fraction): 0.031
In isopropanol, 288.15 K
  solubility (mole fraction): 0.048
In isopropanol, 293.15 K
  solubility (mole fraction): 0.064
In isopropanol, 298.15 K
  solubility (mole fraction): 0.084
In isopropanol, 303.15 K
  solubility (mole fraction): 0.108
In isopropanol, 308.15 K
  solubility (mole fraction): 0.138
In isopropanol, 313.15 K
  solubility (mole fraction): 0.174
In isopropanol, 318.15 K
  solubility (mole fraction): 0.218
In isopropanol, 323.15 K
  solubility (mole fraction): 0.266
In methanol, 278.15 K
  solubility (mole fraction): 0.049
In methanol, 283.15 K
  solubility (mole fraction): 0.074
In methanol, 288.15 K
  solubility (mole fraction): 0.105
In methanol, 293.15 K
  solubility (mole fraction): 0.148
In methanol, 298.15 K
  solubility (mole fraction): 0.207
In methanol, 303.15 K
  solubility (mole fraction): 0.274
In methanol, 308.15 K
  solubility (mole fraction): 0.351
In methanol, 313.15 K
  solubility (mole fraction): 0.44
In methanol, 318.15 K
  solubility (mole fraction): 0.53
In methanol, 323.15 K
  solubility (mole fraction): 0.613
In water, 278.15 K
  solubility (mole fraction): 0.025
In water, 283.15 K
  solubility (mole fraction): 0.039
In water, 288.15 K
  solubility (mole fraction): 0.06
In water, 293.15 K
  solubility (mole fraction): 0.091
In water, 298.15 K
  solubility (mole fraction): 0.133
In water, 303.15 K
  solubility (mole fraction): 0.19
In water, 308.15 K
  solubility (mole fraction): 0.262
In water, 313.15 K
  solubility (mole fraction): 0.347
In water, 318.15 K
  solubility (mole fraction): 0.439
In water, 323.15 K
  solubility (mole fraction): 0.541
